Laboratory results: ChEMBL document CHEMBL5727585, “Carboxylic acid URAT1 inhibitor containing diarylmethane structure, preparation method and use thereof” (2020)

Biological target: T1, Solute carrier family 22 member 12 (Homo sapiens, UniProt Q96S37)
T1 sequence (Q96S37 whole entry): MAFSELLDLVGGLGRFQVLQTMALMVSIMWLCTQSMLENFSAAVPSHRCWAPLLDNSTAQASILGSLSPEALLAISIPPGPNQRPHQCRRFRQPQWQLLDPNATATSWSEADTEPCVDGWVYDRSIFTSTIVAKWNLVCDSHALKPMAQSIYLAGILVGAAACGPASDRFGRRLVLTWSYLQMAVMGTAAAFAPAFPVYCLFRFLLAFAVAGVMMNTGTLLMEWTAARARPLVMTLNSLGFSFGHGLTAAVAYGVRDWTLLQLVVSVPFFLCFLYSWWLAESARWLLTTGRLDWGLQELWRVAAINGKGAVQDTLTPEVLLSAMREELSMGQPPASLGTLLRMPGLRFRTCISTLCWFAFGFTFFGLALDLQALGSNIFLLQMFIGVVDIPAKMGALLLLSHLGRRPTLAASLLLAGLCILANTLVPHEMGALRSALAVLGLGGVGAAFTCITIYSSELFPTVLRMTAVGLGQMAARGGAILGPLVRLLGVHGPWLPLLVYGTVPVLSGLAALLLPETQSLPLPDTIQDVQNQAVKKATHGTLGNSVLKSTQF
Test: IC50 for Inhibition of the Test Compounds on URAT1: After trypsin digestion, the expression cells (HEK293) stably expressing URAT1 gene and mock cells were all inoculated into lysine-coated 24-well culture plates, with the cell inoculation density being 1×10^5 cells/well, and cultured in incubator at 37° C., 5% CO2 and saturated humidity for 2 days. The culture fluid in the culture plate was removed, and the cultured cells were washed twice with DPBS and subjected to warm bath in DPBS buffer solution at 37° C. for 10 min, and then a solution (500 μL) containing radioactive labeled probe substrate ([8-14C] uric acid) and 10 μM test compound (or blank) was used to substitute for DPBS, with the concentration of [8-14C] uric acid being 30 μM and the radiation intensity per well being 0.867 μCi. After 2 min, the reaction was terminated with ice-bathed DPBS buffer solution and washing was carried out for three times. Then 0.1 mol/L NaOH (500 μL) was added into each well to lyse the cells, the lysate was extracted into a scintillation vial and a scintillation fluid (Aquasol-2, 3 mL) was added, and the intensity of radioactivity in the sample was measured using a Tri-Carb 2910TR liquid scintillation analyzer (PerkinElmer, Waltham, USA). […] […]

Structure (SMILES) | IC50 [µM]
CC(C)(Sc1nnc(Br)n1-c1ccc(C2CC2)c2ccccc12)C(=O)O | 2.13
O=C(O)CCc1nnc(Br)n1-c1ccc(C2CC2)c2ccccc12 | 1.81
